Source: BindingDB's records for PubMed 3033464 (Burroughs Wellcome, 1987)
pKi: −log10 of the molar value. Several values for one entry are separate records, joined by “and”; a condition that tells them apart may be missing. Identical values can stand only once. Where a SMILES comes first, the peptide text is derived from it.

What follows are compounds tested against Mu-type opioid receptor (Rattus norvegicus, UniProt P33535).
Chain of Mu-type opioid receptor (P33535 whole entry): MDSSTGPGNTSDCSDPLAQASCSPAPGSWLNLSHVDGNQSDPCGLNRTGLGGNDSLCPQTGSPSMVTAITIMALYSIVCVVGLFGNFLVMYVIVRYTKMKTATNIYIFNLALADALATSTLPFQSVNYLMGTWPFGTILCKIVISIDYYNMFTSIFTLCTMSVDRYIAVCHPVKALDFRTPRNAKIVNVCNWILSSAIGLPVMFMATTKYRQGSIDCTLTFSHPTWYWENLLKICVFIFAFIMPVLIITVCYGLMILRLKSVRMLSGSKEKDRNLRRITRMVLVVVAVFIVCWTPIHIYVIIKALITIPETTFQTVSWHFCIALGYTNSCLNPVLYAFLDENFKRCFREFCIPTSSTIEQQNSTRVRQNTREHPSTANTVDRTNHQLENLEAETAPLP
In the case of `CC(C)[C@H](NC(=O)[C@H](Cc1ccccc1)NC(=O)[C@@H]1CCCN1C(=O)[C@@H](N)Cc1ccc(O)cc1)C(N)=O` (H-YPFV-NH2), the pKi was 7.43 and 7.79. Work on `NC(=O)[C@@H]1CCCN1C(=O)[C@H](Cc1ccccc1)NC(=O)[C@@H]1CCCN1C(=O)[C@@H](N)Cc1ccc(O)cc1` [CAS_79805-24-6] (H-YPFP-NH2) yielded a pKi of 5.94. For `NC(=O)[C@@H]1CCCN1C(=O)[C@@H](Cc1ccccc1)NC(=O)[C@@H]1CCCN1C(=O)[C@@H](N)Cc1ccc(O)cc1` [Morphiceptin] (HELM PEPTIDE1{Y.P.[dF].P.[am]}$$$$V2.0), the pKi was 7.20 and 7.46.
